Some test systems named below: PC-3 prostate; SNB-75 CNS; NCI-H460 lung; SK-MEL-2 melanoma; SR leukemia; NCI-H522 lung; NCI-H226 lung; CAKI-1 renal; SF-268 CNS; UACC-257 melanoma.
Experiment in all cases: NCI-60 cell line screen, 48 h

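Following 48 hours of exposure in 96-well plates, responses at five concentrations were used to interpolate endpoints linearly. At the TGI there is no net growth.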

As for `O=C1CCCC1C(O)(C(F)(F)Cl)C(F)(F)Cl` (centres undefined), the TGI in the assay with PC-3 prostate, in the assay with SNB-75 CNS, in the assay on NCI-H460 lung, with SK-MEL-2 melanoma, in the assay with SR leukemia and in the assay with NCI-H522 lung was over 10 µM in each case. Further, the TGI with NCI-H226 lung, with CAKI-1 renal, in the assay with SF-268 CNS and with UACC-257 melanoma was over 10 µM throughout.

As to `COc1ccc(/C=C/C(=O)N[C@@H]2C(=O)N3[C@@H]2SC(C)(C)[C@@H]3C(=O)O)cc1OC`, the TGI in the assay with PC-3 prostate, with SNB-75 CNS, with NCI-H460 lung, in the assay on SK-MEL-2 melanoma, in the assay on SR leukemia and in the assay on NCI-H522 lung was over 100 µM throughout. In addition, the TGI in the assay with NCI-H226 lung, in the assay with CAKI-1 renal, in the assay with SF-268 CNS and in the assay with UACC-257 melanoma was over 100 µM in each case.

As for `ClC1(Cl)C2CCOC21n1cnc2ccccc21` (centres undefined), the TGI with PC-3 prostate, with SNB-75 CNS, in the assay with SK-MEL-2 melanoma, with SR leukemia, in the assay with NCI-H522 lung and in the assay with NCI-H226 lung was over 100 µM each time. In addition, the TGI with CAKI-1 renal and in the assay on SF-268 CNS was over 100 µM each time.

Consider `CCOC(=O)CCNC(=O)c1cc(C)cc2c1Oc1c(cc(C)cc1C(=O)NCCC(=O)OCC)S2`, for which the TGI in the assay on PC-3 prostate is over 100 µM; with SNB-75 CNS, 78.9 µM; in the assay on SK-MEL-2 melanoma it was over 100 µM; in the assay with SR leukemia, over 100 µM; in the assay on NCI-H522 lung, over 100 µM; in the assay on NCI-H226 lung, over 100 µM. In addition, the TGI with CAKI-1 renal, in the assay with SF-268 CNS and in the assay with UACC-257 melanoma was over 100 µM each time.

For the compound `CC(C)[Si](CC1=CCCCC12C(=O)N(COCC[Si](C)(C)C)c1ccccc12)(C(C)C)C(C)C` (centres undefined), the TGI in the assay with PC-3 prostate, in the assay on SNB-75 CNS, in the assay on NCI-H460 lung, with SK-MEL-2 melanoma, in the assay with SR leukemia and with NCI-H522 lung was over 100 µM throughout. The TGI in the assay with NCI-H226 lung, in the assay with CAKI-1 renal, with SF-268 CNS and with UACC-257 melanoma was over 100 µM throughout.

As to `Cc1nc2c(ccc3[nH]c4ccccc4c32)s1`, the TGI in the assay on PC-3 prostate was 47.9 µM; with SNB-75 CNS it was over 100 µM; with NCI-H460 lung, 79.4 µM; in the assay on SK-MEL-2 melanoma, 54.7 µM; in the assay on SR leukemia, 87.8 µM; in the assay on NCI-H522 lung, 35 µM. In addition, the TGI with NCI-H226 lung was 98.7 µM; in the assay with CAKI-1 renal, over 100 µM; in the assay on SF-268 CNS, over 100 µM; in the assay on UACC-257 melanoma, over 100 µM.

Take `O=C(CCCN1CCC(Nc2ccc(F)cc2)(c2nnnn2C2CCCCC2)CC1)c1ccc(F)cc1`: the TGI in the assay with PC-3 prostate is 51.8 µM; with SNB-75 CNS, 24.7 µM; in the assay on NCI-H460 lung, over 100 µM; in the assay on SK-MEL-2 melanoma it was 40.7 µM; in the assay with SR leukemia, over 100 µM; in the assay on NCI-H522 lung, 29.8 µM. Further, the TGI is 36 µM in the assay with NCI-H226 lung, 33.9 µM in the assay with SF-268 CNS and 57.3 µM in the assay with UACC-257 melanoma.

Take `COC1=C2C[C@](OC)(C#CC=CC#CC2O)CC1(C)C` (some centres undefined): the TGI in the assay with PC-3 prostate, in the assay with SNB-75 CNS, with NCI-H460 lung, in the assay on SR leukemia, in the assay with NCI-H522 lung and in the assay with NCI-H226 lung was over 100 µM in each case. For the same compound, the TGI with CAKI-1 renal, in the assay on SF-268 CNS and in the assay on UACC-257 melanoma was over 100 µM each time.

For `O=Cc1ccc(Oc2c3ccccc3nc3ccccc23)cc1`, the TGI in the assay on PC-3 prostate came to 20.1 µM; in the assay on SNB-75 CNS it was 29.5 µM; in the assay on NCI-H460 lung, 33.8 µM; with SR leukemia it was 7.19 µM; with NCI-H226 lung, 20.2 µM; in the assay with CAKI-1 renal, 22.3 µM. Also, the TGI came to 17.6 µM in the assay on SF-268 CNS and 4.89 µM with UACC-257 melanoma.

Turning to `COc1cc2oc(=O)cc(C)c2c(OC)c1OC`, the TGI in the assay on PC-3 prostate, in the assay with SNB-75 CNS, with SK-MEL-2 melanoma, with SR leukemia, in the assay with NCI-H226 lung and in the assay on SF-268 CNS was over 100 µM throughout. Further, the TGI in the assay with UACC-257 melanoma was over 100 µM.

As for `c1ccc2c[n+](Cc3ccnc4ccccc34)ccc2c1`, the TGI in the assay with PC-3 prostate, with NCI-H460 lung, in the assay on SK-MEL-2 melanoma, in the assay with SR leukemia, with NCI-H522 lung and in the assay on NCI-H226 lung was over 100 µM throughout. Moreover, the TGI in the assay with CAKI-1 renal, in the assay on SF-268 CNS and in the assay with UACC-257 melanoma was over 100 µM each time.

As for `COc1ccc(/C=C2/C(=O)C(c3ccccc3)N(c3ccccc3)C2=O)cc1OC` (centres undefined), the TGI in the assay on PC-3 prostate, in the assay on NCI-H460 lung, with SK-MEL-2 melanoma, in the assay on SR leukemia, in the assay on NCI-H522 lung and in the assay on NCI-H226 lung was over 10 µM each time. The TGI in the assay with CAKI-1 renal, in the assay with SF-268 CNS and in the assay on UACC-257 melanoma was over 10 µM in each case.

`CSc1cc(Cl)c(C)cc1S(=O)(=O)NC(=O)NNc1cnc2ccccc2n1`: the TGI in the assay with PC-3 prostate, in the assay on NCI-H460 lung, in the assay on SK-MEL-2 melanoma, with SR leukemia, in the assay with NCI-H522 lung and with NCI-H226 lung was over 100 µM throughout. Also, the TGI with CAKI-1 renal and in the assay on SF-268 CNS was over 100 µM in each case.

In the case of `NC(=O)NC(=O)c1cccc(C(=O)NC(N)=O)n1`, the TGI with PC-3 prostate, in the assay with NCI-H460 lung, with SK-MEL-2 melanoma, in the assay on SR leukemia, in the assay with NCI-H522 lung and with NCI-H226 lung was over 100 µM each time. Further, the TGI with CAKI-1 renal, in the assay on SF-268 CNS and with UACC-257 melanoma was over 100 µM each time.

As to `O=C(CN1CCOCC1)c1ccc2c(c1)oc(=O)n2CCN1CCCCC1`, the TGI with PC-3 prostate was over 100 µM; in the assay with SNB-75 CNS it was 56.2 µM; in the assay with NCI-H460 lung, over 100 µM; with SK-MEL-2 melanoma, over 100 µM; in the assay with SR leukemia it was over 100 µM; in the assay with NCI-H226 lung, over 100 µM. Moreover, the TGI with CAKI-1 renal, in the assay on SF-268 CNS and in the assay on UACC-257 melanoma was over 100 µM in each case.

For the origin of these results see PubChem BioAssay (NCI).
